According to US20160242416A1, “FUNGICIDAL ISOXAZOLINE CARBINOLS” (E I DU PONT DE NEMOURS AND COMPANY, priority 2015, published 2016):

Legend:
Stagonospora nodorum = experiment: Test D: wheat glume blotch, preventive spray on wheat seedlings; conditions: wheat glume blotch, 100 = 100% disease control, 0 = no control
[1] = system: Erysiphe graminis f sp. tritici; experiment: Test G: wheat powdery mildew, preventive spray on wheat seedlings; conditions: wheat powdery mildew, 100 = 100% disease control, 0 = no control
Zymoseptoria tritici = experiment: Test E: wheat leaf blotch, preventive spray on wheat seedlings; conditions: wheat leaf blotch, 100 = 100% disease control, 0 = no control
Botrytis cinerea = experiment: Test B: gray mold, preventive spray on tomato seedlings; conditions: gray mold on tomato, 100 = 100% disease control, 0 = no control
[2] = system: Puccinia recondita f sp. tritici; experiment: Test F: wheat leaf rust, preventive spray on wheat seedlings; conditions: wheat leaf rust, 100 = 100% disease control, 0 = no control

SMILES	Test D rating (% disease control) (Stagonospora nodorum; 10 ppm)	Test G rating (% disease control) ([1]; 10 ppm)	Test E rating (% disease control) (Zymoseptoria tritici; 10 ppm)	Test B rating (% disease control) (Botrytis cinerea; 10 ppm)	Test F rating (% disease control) ([2]; 10 ppm)	Test D rating (% disease control) (Stagonospora nodorum; 50 ppm (asterisk))	Test G rating (% disease control) ([1]; 50 ppm (asterisk))	Test E rating (% disease control) (Zymoseptoria tritici; 50 ppm (asterisk))	Test B rating (% disease control) (Botrytis cinerea; 50 ppm (asterisk))	Test F rating (% disease control) ([2]; 50 ppm (asterisk))
CC1(C(O)(Cn2cncn2)C2=NOC(c3ccc(Cl)cc3)C2)CC1 (single isomer, unassigned) [Compound 126]	100%	99%	89%	97%	100%	–	–	–	–	–
CC1(C(O)(Cn2cncn2)C2=NOC(c3ccc(Cl)cc3)C2)CC1 (single isomer, unassigned) [Compound 127]	98%	98%	9%	0%	98%	–	–	–	–	–
OC(Cn1cncn1)(C1=NOC(c2ccc(Cl)cc2)C1)c1ccc(Oc2ccccc2)cc1 (single isomer, unassigned) [Compound 128]	–	–	–	–	–	100%	99%	95%	0%	100%
OC(Cn1cncn1)(C1=NOC(c2ccc(Cl)cc2)C1)c1ccccc1F (single isomer, unassigned) [Compound 134]	100%	98%	31%	0%	99%	–	–	–	–	–
OC(Cn1cncn1)(C1=NOC(c2ccc(Cl)cc2)C1)c1ccccc1F (single isomer, unassigned) [Compound 135]	69%	81%	1%	0%	98%	–	–	–	–	–
OC(Cn1cncn1)(C1=NOC(Cc2ccccc2)C1)c1ccc(Cl)cc1 (single isomer, unassigned) [Compound 137]	77%	99%	26%	0%	99%	–	–	–	–	–
CC(C)(C)CC(O)(Cn1cncn1)C1=NOC(c2ccc(Cl)cc2)C1 (single isomer, unassigned) [Compound 138]	100%	100%	0%	17%	100%	–	–	–	–	–
CC(C)(C)CC(O)(Cn1cncn1)C1=NOC(c2ccc(Cl)cc2)C1 (single isomer, unassigned) [Compound 139]	99%	99%	6%	0%	100%	–	–	–	–	–
OC(Cn1cncn1)(C1=NOC(c2ccc(Cl)cc2)C1)c1ccc(Cl)cc1Cl (single isomer, unassigned) [Compound 140]	82%	99%	67%	0%	100%	–	–	–	–	–
OC(Cn1cncn1)(C1=NOC(c2ccc(Cl)cc2)C1)c1ccc(Cl)cc1Cl (single isomer, unassigned) [Compound 141]	0%	84%	1%	0%	99%	–	–	–	–	–
OC(Cn1cncn1)(C1=NOC(c2ccc(Oc3ccccc3)cc2)C1)c1ccc(Cl)cc1 (single isomer, unassigned) [Compound 142]	86%	99%	91%	0%	100%	–	–	–	–	–
OC(Cn1cncn1)(C1=NOC(c2ccc(Oc3ccccc3)cc2)C1)c1ccc(Cl)cc1 (single isomer, unassigned) [Compound 143]	0%	76%	1%	0%	67%	–	–	–	–	–
OC(Cn1cncn1)(C1=NOC(COc2ccccc2)C1)c1ccc(Cl)cc1 (single isomer, unassigned) [Compound 144]	99%	99%	17%	0%	100%	–	–	–	–	–
OC(Cn1cncn1)(C1=NOC(c2ccc(C(F)(F)F)cc2)C1)c1ccc(Cl)cc1 (single isomer, unassigned) [Compound 146]	100%	99%	99%	0%	100%	–	–	–	–	–
OC(Cn1cncn1)(C1=NOC(c2ccc(C(F)(F)F)cc2)C1)c1ccc(Cl)cc1 (single isomer, unassigned) [Compound 147]	73%	90%	17%	0%	100%	–	–	–	–	–
OC(Cn1cncn1)(C1=NOC(c2ccc(-n3ccc(C(F)(F)F)n3)cc2)C1)c1ccc(Cl)cc1 (single isomer, unassigned) [Compound 148]	59%	100%	92%	0%	100%	–	–	–	–	–
OC(Cn1cncn1)(C1=NOC(c2ccc(-n3ccc(C(F)(F)F)n3)cc2)C1)c1ccc(Cl)cc1 (single isomer, unassigned) [Compound 149]	0%	76%	38%	0%	36%	–	–	–	–	–
OC(Cn1cncn1)(C1=NOC(c2ccc(Cl)cc2)C1)c1ccccc1Cl (single isomer, unassigned) [Compound 150]	100%	99%	42%	0%	100%	–	–	–	–	–
OC(Cn1cncn1)(C1=NOC(c2ccc(Cl)cc2)C1)c1ccccc1Cl (single isomer, unassigned) [Compound 151]	0%	90%	76%	0%	84%	–	–	–	–	–
OC(Cn1cncn1)(C1=NOC(c2ccc(C(F)(F)F)cc2)C1)c1ccc(C(F)(F)F)cc1 (single isomer, unassigned) [Compound 153]	0%	100%	93%	0%	100%	–	–	–	–	–
OC(Cn1cncn1)(C1=NOC(c2ccc(C(F)(F)F)cc2)C1)c1ccc(C(F)(F)F)cc1 (single isomer, unassigned) [Compound 154]	0%	83%	1%	0%	52%	–	–	–	–	–
CCCCC(O)(Cn1cncn1)C1=NOC(c2ccc(Cl)cc2)C1 (single isomer, unassigned) [Compound 155]	100%	100%	2%	0%	100%	–	–	–	–	–
CCCCC(O)(Cn1cncn1)C1=NOC(c2ccc(Cl)cc2)C1 (single isomer, unassigned) [Compound 156]	98%	100%	19%	0%	100%	–	–	–	–	–
OC(Cn1cncn1)(C1=NOC(c2cnccn2)C1)c1ccc(Cl)cc1 (single isomer, unassigned) [Compound 157]	0%	26%	0%	0%	0%	–	–	–	–	–
OC(Cn1cncn1)(C1=NOC(c2ccc(F)cc2)C1)c1ccc(Cl)cc1 (single isomer, unassigned) [Compound 158]	96%	100%	3%	0%	100%	–	–	–	–	–
OC(Cn1cncn1)(C1=NOC(c2ccc(F)cc2)C1)c1ccc(Cl)cc1 (single isomer, unassigned) [Compound 159]	0%	97%	0%	0%	0%	–	–	–	–	–
OC(Cn1cncn1)(C1=NOC(c2ccc(Cl)cc2)C1)c1ccc(F)cc1 (single isomer, unassigned) [Compound 160]	99%	100%	11%	75%	100%	–	–	–	–	–
